Key:
Format in all cases: biochemical
[1] = target: JAK2 (Homo sapiens (Human), UniProt O60674); assay: Inhibition of JAK, luminescence kinase assay (ADP-Glo), JAK2; conditions: purified recombinant JAK2
Description: (§1) The study of the effect of compounds on the activity of purified recombinant JAK was performed by studying the inhibitory activity of the compounds on JAK from the enzymatic level. The experimental principle is to use a luminescence kinase assay to detect the ADP content produced by the reaction of JAK with the substrate Poly (4:1 Glu, Tyr) peptide: after ADP is converted to ATP, ATP can act as a substrate for the Ultra-Glo luciferase catalytic reaction, producing an optical signal. The luminescence signal is positively correlated with the amount of ADP and kinase activity. Therefore, the inhibitory effect of the compounds on the recombinant JAK was determined by observing the luminescence signal produced by the reaction of JAK and the substrate, and was expressed by IC50.
(§2) Experimental method: 10 different concentrations of compounds were incubated with JAK1, JAK2 and JAK3, respectively, for 60 minutes at 37° C. The substrate and ATP were then added, mixed, and reacted at 37° C. for 50 minutes. 25 μl of ADP-Glo™ was added and mixed for 2 minutes. The reaction was carried out for 50 minutes at room temperature. Further, 50 μl of the detection reagent was added and mixed for 2 minutes, and incubated at room temperature for 50 minutes, and detected by a chemiluminometer.

[2] = target: JAK3 (Homo sapiens (Human), UniProt P52333); assay: Inhibition of JAK, luminescence kinase assay (ADP-Glo), JAK3; conditions: purified recombinant JAK3
Description: as §1, §2

[3] = target: JAK1 (Homo sapiens (Human), UniProt P23458); assay: Inhibition of JAK, luminescence kinase assay (ADP-Glo), JAK1; conditions: for IC50: purified recombinant JAK1
Description: as §1, §2

[4] = Table 2, same experimental conditions

Sequence of JAK3 (P52333 whole entry): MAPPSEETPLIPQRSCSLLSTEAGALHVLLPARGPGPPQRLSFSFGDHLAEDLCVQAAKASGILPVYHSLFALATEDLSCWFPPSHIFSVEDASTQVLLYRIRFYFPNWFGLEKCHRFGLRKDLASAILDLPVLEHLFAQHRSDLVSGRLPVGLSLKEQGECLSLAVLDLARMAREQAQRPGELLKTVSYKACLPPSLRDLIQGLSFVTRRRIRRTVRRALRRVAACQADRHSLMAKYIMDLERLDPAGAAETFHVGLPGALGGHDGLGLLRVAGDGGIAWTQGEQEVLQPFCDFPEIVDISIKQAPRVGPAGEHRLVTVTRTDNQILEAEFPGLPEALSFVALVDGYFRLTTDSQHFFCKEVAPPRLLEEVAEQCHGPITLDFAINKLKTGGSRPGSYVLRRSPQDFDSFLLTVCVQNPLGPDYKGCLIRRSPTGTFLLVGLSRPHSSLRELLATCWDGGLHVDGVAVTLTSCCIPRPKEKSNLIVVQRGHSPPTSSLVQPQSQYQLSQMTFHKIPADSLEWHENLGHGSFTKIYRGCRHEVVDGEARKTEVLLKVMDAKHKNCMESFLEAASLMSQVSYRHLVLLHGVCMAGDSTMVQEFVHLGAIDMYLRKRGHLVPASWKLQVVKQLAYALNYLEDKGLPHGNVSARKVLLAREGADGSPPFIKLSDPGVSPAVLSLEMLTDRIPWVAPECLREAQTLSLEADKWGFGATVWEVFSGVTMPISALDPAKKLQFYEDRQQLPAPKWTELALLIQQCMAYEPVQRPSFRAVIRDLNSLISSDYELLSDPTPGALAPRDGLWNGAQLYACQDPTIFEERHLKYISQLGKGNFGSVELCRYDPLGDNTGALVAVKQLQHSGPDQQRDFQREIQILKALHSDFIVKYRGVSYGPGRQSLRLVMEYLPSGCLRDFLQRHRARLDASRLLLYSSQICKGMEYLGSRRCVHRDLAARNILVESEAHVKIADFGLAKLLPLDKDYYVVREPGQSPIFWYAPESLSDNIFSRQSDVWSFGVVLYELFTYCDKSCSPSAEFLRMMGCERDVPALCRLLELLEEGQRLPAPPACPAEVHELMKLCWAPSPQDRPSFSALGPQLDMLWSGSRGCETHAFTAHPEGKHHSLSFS
Sequence of JAK2 (O60674 whole entry): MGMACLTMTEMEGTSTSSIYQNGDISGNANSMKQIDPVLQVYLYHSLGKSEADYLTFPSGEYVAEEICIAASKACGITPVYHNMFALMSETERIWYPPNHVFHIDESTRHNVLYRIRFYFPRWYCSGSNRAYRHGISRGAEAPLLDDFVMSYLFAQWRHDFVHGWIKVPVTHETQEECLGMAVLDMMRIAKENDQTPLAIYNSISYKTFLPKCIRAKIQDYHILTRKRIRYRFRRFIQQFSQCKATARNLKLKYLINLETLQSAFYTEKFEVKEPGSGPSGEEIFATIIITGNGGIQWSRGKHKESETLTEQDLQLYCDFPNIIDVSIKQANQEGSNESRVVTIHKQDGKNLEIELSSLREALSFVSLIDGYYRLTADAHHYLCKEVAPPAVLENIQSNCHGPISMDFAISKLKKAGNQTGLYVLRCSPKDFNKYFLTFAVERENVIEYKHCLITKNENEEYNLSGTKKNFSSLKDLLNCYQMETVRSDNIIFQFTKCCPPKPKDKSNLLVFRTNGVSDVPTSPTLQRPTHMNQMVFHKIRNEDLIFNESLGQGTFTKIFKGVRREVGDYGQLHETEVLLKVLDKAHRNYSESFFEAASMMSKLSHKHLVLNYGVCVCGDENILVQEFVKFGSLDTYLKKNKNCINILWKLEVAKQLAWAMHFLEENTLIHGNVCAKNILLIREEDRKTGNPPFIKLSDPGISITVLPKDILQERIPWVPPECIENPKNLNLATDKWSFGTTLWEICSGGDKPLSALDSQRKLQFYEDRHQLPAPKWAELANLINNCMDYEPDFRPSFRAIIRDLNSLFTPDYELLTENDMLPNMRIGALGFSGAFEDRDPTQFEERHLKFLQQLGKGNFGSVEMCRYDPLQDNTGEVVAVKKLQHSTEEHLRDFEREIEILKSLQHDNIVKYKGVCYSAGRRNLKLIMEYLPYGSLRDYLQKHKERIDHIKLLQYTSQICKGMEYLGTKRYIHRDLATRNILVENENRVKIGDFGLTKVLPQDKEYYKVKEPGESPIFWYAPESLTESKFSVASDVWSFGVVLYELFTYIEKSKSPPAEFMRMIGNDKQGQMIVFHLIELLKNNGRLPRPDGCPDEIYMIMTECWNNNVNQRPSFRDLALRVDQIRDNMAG
Sequence of JAK1 (P23458 whole entry): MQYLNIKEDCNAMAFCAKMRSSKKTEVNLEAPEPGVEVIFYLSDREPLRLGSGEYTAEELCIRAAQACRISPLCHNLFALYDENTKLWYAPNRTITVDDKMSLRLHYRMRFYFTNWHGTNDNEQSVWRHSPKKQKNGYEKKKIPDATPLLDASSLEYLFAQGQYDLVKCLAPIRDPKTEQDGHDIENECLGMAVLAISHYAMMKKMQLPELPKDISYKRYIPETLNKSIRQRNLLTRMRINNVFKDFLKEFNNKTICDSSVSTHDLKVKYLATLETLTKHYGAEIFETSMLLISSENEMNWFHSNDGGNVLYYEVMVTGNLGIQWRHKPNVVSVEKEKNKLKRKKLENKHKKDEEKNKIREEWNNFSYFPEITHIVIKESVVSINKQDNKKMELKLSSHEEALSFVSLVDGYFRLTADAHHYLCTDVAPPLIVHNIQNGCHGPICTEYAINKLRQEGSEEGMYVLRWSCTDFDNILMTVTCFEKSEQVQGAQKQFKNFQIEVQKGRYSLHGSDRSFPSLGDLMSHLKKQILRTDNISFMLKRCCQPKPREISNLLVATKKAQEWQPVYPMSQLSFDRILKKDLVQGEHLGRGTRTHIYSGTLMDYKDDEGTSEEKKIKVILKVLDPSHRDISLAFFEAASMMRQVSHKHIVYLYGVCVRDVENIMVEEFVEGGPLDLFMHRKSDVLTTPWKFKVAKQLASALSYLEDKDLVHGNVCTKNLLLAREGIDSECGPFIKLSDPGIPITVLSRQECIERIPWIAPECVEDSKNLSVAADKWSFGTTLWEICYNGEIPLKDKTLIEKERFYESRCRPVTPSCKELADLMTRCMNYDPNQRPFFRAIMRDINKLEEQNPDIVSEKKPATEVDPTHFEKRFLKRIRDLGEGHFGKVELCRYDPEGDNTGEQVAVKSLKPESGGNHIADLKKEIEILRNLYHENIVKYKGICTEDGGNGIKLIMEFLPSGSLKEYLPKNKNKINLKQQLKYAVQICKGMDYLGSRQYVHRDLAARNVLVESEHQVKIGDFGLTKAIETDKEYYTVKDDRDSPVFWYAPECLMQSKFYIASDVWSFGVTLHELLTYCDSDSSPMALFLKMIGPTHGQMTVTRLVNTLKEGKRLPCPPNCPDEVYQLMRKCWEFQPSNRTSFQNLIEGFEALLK

Compound | IC50 ([1]; Table 1) [nM] | IC50 [1, 4] [nM] | IC50 ([2]; Table 1) [nM] | IC50 [2, 4] [nM] | inhibitory activity against JAK1 relative to JAK2 (selectivity) ([3]; JAK1 versus JAK2, from Table 2) [times] | IC50 ([3]; Table 1) [nM] | IC50 [3, 4] [nM]
CS(=O)(=O)C1CN(Cc2ccc(-c3cccc4nc(NC(=O)C5CC5)nn34)cc2)C1 [Example 1, N-(5-(4-((3-(methylsulfonyl)azetidin-1-yl)methyl)phenyl)-[1,2,4]triazolo[1,5-a]pyridin-2-yl]cyclopropanecarboxamide] | > 50 | 498 | > 50 | 2430 | 10 | 20 to 50 | 48
CS(=O)(=O)C1CN(Cc2ccc(-c3cccc4nc(NC(=O)C5CC5)nn34)cc2F)C1 [Example 2, N-(5-(3-fluoro-4-((3-(methylsulfonyl)azetidin-1-yl)methyl)phenyl)-[1,2,4]triazolo[1,5-a]pyridin-2-yl]cyclopropanecarboxamide] |  |  |  |  |  | 20 to 50 | 
CS(=O)(=O)C1CN(Cc2c(F)cc(-c3cccc4nc(NC(=O)C5CC5)nn34)cc2F)C1 [Example 3, N-(5-(3,5-difluoro-4-((3-(methylsulfonyl)azetidin-1-yl)methyl)phenyl)-[1,2,4]triazolo[1,5-a]pyridin-2-yl]cyclopropanecarboxamide] | > 50 |  | > 50 |  |  | 20 to 50 | 
CC(C)C(=O)Nc1nc2cccc(-c3ccc(CN4CC(S(=O)(=O)C5CC5)C4)cc3)n2n1 [Example 5, N-(5-(4-((3-(cyclopropylsulfonyl)azetidin-1-yl)methyl)phenyl)-[1,2,4]triazolo[1,5-a]pyridin-2-yl]isobutyramide] | > 50 |  |  |  |  | 20 to 50 | 
CCS(=O)(=O)C1CN(Cc2ccc(-c3cccc4nc(NC(=O)C(C)C)nn34)cc2)C1 [Example 6, N-(5-(4-((3-(ethylsulfonyl)azetidin-1-yl)methyl)phenyl)-[1,2,4]triazolo[1,5-a]pyridin-2-yl]isobutyramide] | > 50 |  | > 50 |  |  | > 50 | 
CCS(=O)(=O)C1CN(Cc2ccc(-c3cccc4nc(NC(=O)C5CC5)nn34)cc2)C1 [Example 7, N-(5-(4-((3-(ethylsulfonyl)azetidin-1-yl)methyl)phenyl)-[1,2,4]triazolo[1,5-a]pyridin-2-yl]cyclopropanecarboxamide] | > 50 |  |  |  |  | 20 to 50 | 
CS(=O)(=O)C1CN(Cc2ccc(-c3cccc4nc(N)nn34)cc2)C1 [Example 8, 5-(4-((3-(methylsulfonyl)azetidin-1-yl)methyl)phenyl)-[1,2,4]triazolo[1,5-a]pyridin-2-ylamine] | > 50 |  | 20 to 50 |  |  | 20 to 50 | 
CS(=O)(=O)C1CN(Cc2ccc(-c3cccn4nc(NC(=O)C5CC5)nc34)cc2)C1 [Example 9, N-(8-(4-((3-(methylsulfonyl)azetidin-1-yl)methyl)phenyl)-[1,2,4]triazolo[1,5-a]pyridin-2-yl]cyclopropanecarboxamide] | > 50 |  | > 50 |  |  | 20 to 50 | 
O=C(Nc1nc2c(-c3ccc(CN4CC(S(=O)(=O)C5CC5)C4)cc3)cccn2n1)C1CC1 [Example 10, N-(8-(4-((3-(cyclopropylsulfonyl)azetidin-1-yl)methyl)phenyl)-[1,2,4]triazolo[1,5-a]pyridin-2-yl]cyclopropanecarboxamide] | > 50 |  | > 50 |  |  | > 50 | 
CCS(=O)(=O)C1CN(Cc2ccc(-c3cccn4nc(NC(=O)C5CC5)nc34)cc2)C1 [Example 11, N-(8-(4-((3-(ethylsulfonyl)azetidin-1-yl)methyl)phenyl)-[1,2,4]triazolo[1,5-a]pyridin-2-yl]cyclopropanecarboxamide] | > 50 |  | > 50 |  |  | 20 to 50 | 
CC(C)C(=O)Nc1nc2c(-c3ccc(CN4CC(S(C)(=O)=O)C4)cc3)cccn2n1 [Example 12] | > 50 |  | > 50 |  |  | 20 to 50 | 
CC(C)C(=O)Nc1nc2c(-c3ccc(CN4CC(S(=O)(=O)C5CC5)C4)cc3)cccn2n1 [Example 13, N-(8-(4-((3-(cyclopropylsulfonyl)azetidin-1-yl)methyl)phenyl)-[1,2,4]triazolo[1,5-a]pyridin-2-yl]isobutyramide] | > 50 |  | > 50 |  |  | 20 to 50 | 
CCS(=O)(=O)C1CN(Cc2ccc(-c3cccn4nc(NC(=O)C(C)C)nc34)cc2)C1 [Example 14, N-(8-(4-((3-(ethylsulfonyl)azetidin-1-yl)methyl)phenyl)-[1,2,4]triazolo[1,5-a]pyridin-2-yl]isobutyramide] | > 50 |  | > 50 |  |  | 20 to 50 | 
CS(=O)(=O)C1CN(Cc2ccc(-c3cccn4nc(NC(=O)C5CC5)nc34)cc2F)C1 [Example 15, N-(8-(3-fluoro-4-((3-(methylsulfonyl)azetidin-1-yl)methyl)phenyl)-[1,2,4]triazolo[1,5-a]pyridin-2-yl]cyclopropanecarboxamide] |  |  |  |  |  | 20 to 50 | 
CS(=O)(=O)C1CN(Cc2c(F)cc(-c3cccn4nc(NC(=O)C5CC5)nc34)cc2F)C1 [Example 16, N-(8-(3,5-difluoro-4-((3-(methylsulfonyl)azetidin-1-yl)methyl)phenyl)-[1,2,4]triazolo[1,5-a]pyridin-2-yl]cyclopropanecarboxamide] | > 50 |  | > 50 |  |  | > 50 | 
CS(=O)(=O)C1CN(Cc2ccc(-c3cccn4nc(N)nc34)cc2)C1 [Example 17, 8-(4-((3-(methylsulfonyl)azetidin-1-yl)methyl)phenyl)-[1,2,4]triazolo[1,5-a]pyridin-2-ylamine] | > 50 |  | 20 to 50 |  |  | 20 to 50 | 
CCS(=O)(=O)C1CN(Cc2ccc(-c3cccn4nc(N)nc34)cc2)C1 [Example 18, 8-(4-((3-(ethylsulfonyl)azetidin-1-yl)methyl)phenyl)-[1,2,4]triazolo[1,5-a]pyridin-2-ylamine] | > 50 |  | > 50 |  |  | > 50 | 
O=S1(=O)CCN(Cc2ccc(-c3ncnc4[nH]ccc34)cc2)CC1 [Example 19, 4-(4-(7H-pyrrolo[2,3-d]pyrimidin-4-yl)benzyl)thiomorpholine 1,1-dioxide] | > 50 |  | > 50 |  |  | < 20 | 

Source: patent US11279699B2 (Suzhou Longbiotech Pharmaceuticals Co., Ltd., priority 2016, dated 2022)
